Reference: patent US12551449B2, “Tunable degradation in hydrogel microparticles” (LIKARDA, INC., priority 2019, dated 2026)

Columns and labels:
[1] = thiol group(s); cited from earlier work
canine islets [2] = assay: Cytotoxicity of UV light and photoinitiator on canine islets; type: cell-based; conditions: 10 minutes UV ~40 mW/cm^2
Description: (§1) Dead cells were identified using propidium iodine staining and fluorescence microscopy. Fluorescence micrographs were captured with a Cytation 5 Imaging Multi-Mode Reader (Biotek Instruments, Inc, 531/647 nm ex/em). Cell death was quantified by calculating the ratio of red (dead) pixels to total islet pixels using Adobe Photoshop. Twenty-five individual islets were analyzed per group and were distinguished from non-islet tissues via dithizone staining. Results are reported as the average viable cell fraction and normalized to islet viability of the matched, untreated controls (i.e., islet from the same batch in culture medium).
For PEGDA and methacrylated hyaluronic acid (MeHA) microparticles, photocrosslinking was utilized. Thus, studies examining the toxicity of ultraviolet light (UV) and the photoinitiator were first conducted. Canine islets were suspended in Dulbecco's phosphate buffered saline (DPBS) containing 0, 0.025 or 0.05% (w/v) of the photoinitiator, IRGACURE® 2959. Approximately 50 IEQ were loaded into wells of a 24-well plate and irradiated with long-wave ultraviolet (UV) light for 3, 5 or 10 minutes. […] Cell death was evaluated via propidium iodide staining and quantified as described in the previous section.

canine islets [3] = assay: Cytotoxicity of calcium (CSS component) on canine islets, propidium iodide staining; type: cell-based
Description: The cytotoxicity of calcium, a component in the CSS process, was tested by exposing canine islets to solutions containing either 100 mM or 200 mM calcium chloride, 10 mM HEPES buffer, and 20% PEGDA, MW 3,400 Da (Laysan Bio, Inc.) for 5, 10 or 15 minutes. A group was also exposed to 100 mM calcium chloride without PEGDA to evaluate the effect of calcium alone. Islets were suspended at approximately 5,000 IEQ/mL in the test solutions to emulate the high cell loading density associated with the encapsulation process. After calcium exposure, islets were washed twice with supplemented CMRL 1066 islet media and then incubated at 37° C. and 5% CO2 for 3 hours prior to assessment.
as §1

## SCCSCCS [2,2'-thiodiethanethiol]
[1]
  pKa: 9.4-9.5

## SCCOCCS [2-mercaptoethyl ether]
[1]
  pKa: 10.5-10.7

## N[C@H](CS)CCS [(S)-2 Aminobutane 1,4 dithiol]
[1]
  pKa: 8.5

## O=C(CCS)OCCOC(=O)CCS [Glycol di(3mercaptopropionate)]
[1]
  pKa: 9.4-9.5

## O=C(CS)OCCOC(=O)CS [Glycol dimercaptoacetate]
[1]
  pKa: 7.9-8.1

## SCCOCCOCCOCCOCCOCCS [Hexaethhylene glycol dithiol]
[1]
  pKa: 10.5-10.7

## CC(C)(O)C(=O)c1ccc(OCCO)cc1 [IRGACURE® 2959, 2-Hydroxy-4′-(2-hydroxyethoxy)-2-methylpropiophenone]
Canine islets [2]; 0.025% (w/v)
  viable cell fraction: 94.5%
Canine islets [2]; 0.05% (w/v)
  viable cell fraction: 87.2%

## [Ca+2].[Cl-].[Cl-] [calcium, calcium chloride]
Canine islets [3]; 100 mM calcium in concentrated, viscous PEGDA solution
  exposure time tolerated by islets: at least 10 minutes
Canine islets [3]; 100 mM calcium without PEGDA, 15 minutes
  viability compared to controls: 97.6%
Canine islets [3]; 200 mM calcium
  cytotoxicity to islets: rapidly cytotoxic
Canine islets [3]; 100 or 200 mM calcium with PEGDA or 100 mM calcium alone, 5 minutes exposure
  viability compared to matched, untreated controls: above 97.5%

## Glyceryl dithioglycolate
[1]
  pKa: 7.9-8.1
